{
  "source": "patent US20040248950A1",
  "about": "“Apo ai expression accelerating agent” (priority 2004, published 2004)",
  "key": {"[1]": {"tested_on": "promoter region of the gene encoding human apoAI", "assay": "Activity to enhance the production of human apoAI: apoAI promoter-luciferase reporter assay in HepG2 cells", "assay_type": "cell-based", "details": "minimum effective dose: concentration that intensified luciferase activity twice compared to control, 24 hours incubation, 0 to 10 μg/mL, read-out: MED", "method": "Activity to Enhance the Production of Human apoAI\nThe promoter region of the gene encoding human apoAI was isolated and ligated upstream the structure gene of firefly luciferase to construct a reporter plasmid. The reporter plasmid and a marker plasmid conferring the neomycin resistance were co-infected to cell lines derived from human hepatoma, HepG2 cells, and the cell lines were incubated in a selection medium comprising DMEM medium containing 10% fetal calf serum supplemented with G418 (Final concentration: 0.7 mg/mL, Gibco) to give established strains that stably express the reporter molecule. The strains were seeded to a 96-well culture plates at a density of 50,000 cells per well, and incubated for 48 hours at 37° C. under 5% carbon dioxide. Then, a solution of the compounds according to the invention in DMSO was added to the wells at a final concentration of 0 to 10 μg/mL. After further incubation for 24 hours, the cells were added with a luciferase assay reagent (Piccagene LT 7.5 registered trade mark, Toyo Ink, KK), and the luciferase activity was determined using a luminometer (MicroBetaTM TRILUX, 1 sec/well, Wallac). The concentration of the compounds, which intensified the luciferase activity twice compared to that of control (DMSO without any compound of the invention added) was set as the minimal effective dose (MED)."}},
  "data": [
    {"smiles": "c1ccc(-c2cn(-c3ccccc3)nn2)cc1", "note": "[Compound 123TA14-2]", "values": [
      {"measurement": "EC (2-fold luciferase activity)", "setting": "[1]", "result": 0.59, "unit": "µM"}
    ]},
    {"smiles": "COc1ccc(-c2nc(-c3ccccc3)no2)cc1", "note": "[Compound 124OD35-12, 5-(4-Methoxyphenyl)-3-phenyl-1,2,4-oxadiazole]", "values": [
      {"measurement": "EC (2-fold luciferase activity)", "setting": "[1]", "result": 0.07, "unit": "µM"}
    ]},
    {"smiles": "COc1ccc(-c2nc(-c3ccncc3)no2)cc1", "note": "[Compound 124OD35-13]", "values": [
      {"measurement": "EC (2-fold luciferase activity)", "setting": "[1]", "result": 0.7, "unit": "µM"}
    ]},
    {"smiles": "c1ccc(-c2nc(-c3ccc(-c4csnn4)cc3)no2)cc1", "note": "[Compound 124OD35-15]", "values": [
      {"measurement": "EC (2-fold luciferase activity)", "setting": "[1]", "result": 0.18, "unit": "µM"}
    ]},
    {"smiles": "c1ccc(Nc2nc(-c3ccccc3)ns2)cc1", "note": "[Compound 124TD35-6]", "values": [
      {"measurement": "EC (2-fold luciferase activity)", "setting": "[1]", "result": 0.93, "unit": "µM"}
    ]},
    {"smiles": "CSc1ccc(-c2nnc(-c3ccccc3)o2)cc1", "note": "[Compound 134OD25-14]", "values": [
      {"measurement": "EC (2-fold luciferase activity)", "setting": "[1]", "result": 0.56, "unit": "µM"},
      {"measurement": "melting point", "result": "120 to 122", "unit": "°C"}
    ]},
    {"smiles": "CN(C)c1ccc(-c2nnc(-c3ccccc3)o2)cc1", "note": "[Compound 134OD25-15, 2-(4-Dimethylaminophenyl)-5-phenyl-1,3,4-oxadiazole]", "values": [
      {"measurement": "EC (2-fold luciferase activity)", "setting": "[1]", "result": 0.27, "unit": "µM"},
      {"measurement": "melting point", "result": "135 to 140", "unit": "°C"}
    ]},
    {"smiles": "C(=C\\c1nnc(-c2ccccc2)o1)/c1ccco1", "note": "[Compound 134OD25-23, 2-[2-(2-Furyl)vinyl]-5-[1,3,4]-oxadiazole]", "values": [
      {"measurement": "EC (2-fold luciferase activity)", "setting": "[1]", "result": 0.82, "unit": "µM"},
      {"measurement": "melting point", "result": "127 to 130", "unit": "°C"}
    ]},
    {"smiles": "c1ccc(-c2nnc(-c3cc4ccccc4o3)o2)cc1", "note": "[Compound 134OD25-28]", "values": [
      {"measurement": "EC (2-fold luciferase activity)", "setting": "[1]", "result": 1.1, "unit": "µM"},
      {"measurement": "melting point", "result": "148 to 149", "unit": "°C"}
    ]},
    {"smiles": "COc1cccc(-c2nnc(-c3ccoc3)o2)c1", "note": "[Compound 134OD25-32, 2-(3-Furyl)-5-(3-methoxyphenyl)-[1,3,4]-oxadiazole]", "values": [
      {"measurement": "EC (2-fold luciferase activity)", "setting": "[1]", "result": 2.8, "unit": "µM"},
      {"measurement": "melting point", "result": "70 to 71", "unit": "°C"}
    ]},
    {"smiles": "CC(C)Oc1cccc(-c2nnc(-c3ccoc3)o2)c1", "note": "[Compound 134OD25-34]", "values": [
      {"measurement": "EC (2-fold luciferase activity)", "setting": "[1]", "result": 1.5, "unit": "µM"}
    ]},
    {"smiles": "Cc1cccc(-c2nnc(-c3cccc(C)c3)o2)c1", "note": "[Compound 134OD25-40, 2,5-Bis (3-tolyl)-1,3,4-oxadiazole]", "values": [
      {"measurement": "EC (2-fold luciferase activity)", "setting": "[1]", "result": 0.17, "unit": "µM"},
      {"measurement": "melting point", "result": "82 to 83", "unit": "°C"}
    ]},
    {"smiles": "c1ccc(-c2nnc(-c3ccccn3)o2)cc1", "note": "[Compound 134OD25-46, 2-(2-Pyridyl)-5-phenyl-1,3,4-oxadiazole]", "values": [
      {"measurement": "EC (2-fold luciferase activity)", "setting": "[1]", "result": 0.37, "unit": "µM"}
    ]},
    {"smiles": "COc1cccc(-c2nnc(N3CCOCC3)s2)c1", "note": "[Compound 134TD25-1]", "values": [
      {"measurement": "EC (2-fold luciferase activity)", "setting": "[1]", "result": 0.89, "unit": "µM"}
    ]},
    {"smiles": "CC(C)Oc1cccc(-c2nnc(-c3ccoc3)s2)c1", "note": "[Compound 134TD25-4]", "values": [
      {"measurement": "EC (2-fold luciferase activity)", "setting": "[1]", "result": 0.58, "unit": "µM"}
    ]},
    {"smiles": "Cc1ccc(-c2nnc(-c3ccco3)s2)cc1", "note": "[Compound 134TD25-5, 2-(2-Furyl)-5-p-tolyl-[1,3,4]-thiadiazole]", "values": [
      {"measurement": "EC (2-fold luciferase activity)", "setting": "[1]", "result": 0.98, "unit": "µM"},
      {"measurement": "melting point", "result": "110 to 113", "unit": "°C"}
    ]},
    {"smiles": "c1ccc(-c2ccc(-c3ccccc3)o2)cc1", "note": "[Compound F25-10]", "values": [
      {"measurement": "EC (2-fold luciferase activity)", "setting": "[1]", "result": 2.5, "unit": "µM"}
    ]},
    {"smiles": "c1ccc(-c2cc(-c3ccccc3)on2)cc1", "note": "[IX35-1]", "values": [
      {"measurement": "EC (2-fold luciferase activity)", "setting": "[1]", "result": 0.75, "unit": "µM"}
    ]},
    {"smiles": "COc1cccc(-c2cc(-c3ccoc3)on2)c1", "note": "[IX35-9, 5-(Furan-3-yl)-3-(3-methoxyphenyl)-isoxazole]", "values": [
      {"measurement": "EC (2-fold luciferase activity)", "setting": "[1]", "result": 0.53, "unit": "µM"},
      {"measurement": "melting point", "result": "36 to 37", "unit": "°C"}
    ]},
    {"smiles": "COc1ccc(-c2nc(-c3ccccc3)co2)cc1", "note": "[OX24-5]", "values": [
      {"measurement": "EC (2-fold luciferase activity)", "setting": "[1]", "result": 0.32, "unit": "µM"}
    ]},
    {"smiles": "c1ccc(-c2coc(-c3ccccc3)n2)cc1", "note": "[OX24-8]", "values": [
      {"measurement": "EC (2-fold luciferase activity)", "setting": "[1]", "result": 2.9, "unit": "µM"}
    ]},
    {"smiles": "COc1ccc(-c2cc(-c3ccc(OC)cc3)n(C)n2)cc1", "note": "[PZ35-4, 3,5-Di(4-methoxyphenyl)-1-methylpyrazole]", "values": [
      {"measurement": "EC (2-fold luciferase activity)", "setting": "[1]", "result": 0.41, "unit": "µM"}
    ]},
    {"smiles": "c1ccc(-c2cc(-c3ccccn3)[nH]n2)nc1", "note": "[PZ35-5]", "values": [
      {"measurement": "EC (2-fold luciferase activity)", "setting": "[1]", "result": 1.5, "unit": "µM"}
    ]},
    {"smiles": "Cc1ccc(-c2csc(-c3ccccc3)n2)cc1", "note": "[TZ24-3]", "values": [
      {"measurement": "EC (2-fold luciferase activity)", "setting": "[1]", "result": 0.45, "unit": "µM"}
    ]},
    {"smiles": "COc1ccc(-c2nc(-c3ccccc3)cs2)cc1", "note": "[TZ24-5, 2-(4-Methoxyphenyl)-4-phenylthiazole]", "values": [
      {"measurement": "EC (2-fold luciferase activity)", "setting": "[1]", "result": 3.7, "unit": "µM"}
    ]},
    {"smiles": "COc1ccc(-c2nc(-c3ccco3)cs2)cc1", "note": "[TZ24-6, 4-(2-Furyl)-2-(4-methoxyphenyl)thiazole]", "values": [
      {"measurement": "EC (2-fold luciferase activity)", "setting": "[1]", "result": 1.2, "unit": "µM"}
    ]},
    {"smiles": "COc1ccc(-c2nc(-c3ccccn3)cs2)cc1", "note": "[TZ24-11]", "values": [
      {"measurement": "EC (2-fold luciferase activity)", "setting": "[1]", "result": 1.2, "unit": "µM"}
    ]},
    {"smiles": "Cc1ccc(-n2nnc(-c3ccc(Cl)cc3)n2)cc1", "note": "[TZ-1]", "values": [
      {"measurement": "EC (2-fold luciferase activity)", "setting": "[1]", "result": 0.33, "unit": "µM"}
    ]},
    {"smiles": "Cc1ccc(-c2nnn(-c3ccc(Cl)cc3)n2)cc1", "note": "[TZ-2]", "values": [
      {"measurement": "EC (2-fold luciferase activity)", "setting": "[1]", "result": 0.42, "unit": "µM"}
    ]},
    {"smiles": "Cc1ccc(-n2nnc(-c3ccccc3)n2)cc1", "note": "[TZ-3]", "values": [
      {"measurement": "EC (2-fold luciferase activity)", "setting": "[1]", "result": 0.2, "unit": "µM"}
    ]},
    {"smiles": "Clc1ccc(-c2nnn(-c3ccc(Cl)cc3)n2)cc1", "note": "[TZ-4]", "values": [
      {"measurement": "EC (2-fold luciferase activity)", "setting": "[1]", "result": 0.53, "unit": "µM"}
    ]},
    {"smiles": "COc1ccc(-n2nnc(-c3ccccc3)n2)cc1", "note": "[TZ-7]", "values": [
      {"measurement": "EC (2-fold luciferase activity)", "setting": "[1]", "result": 0.22, "unit": "µM"}
    ]}
  ]
}
